Data taken from US20240285552A1 (priority 2020, published 2024).
“Also recorded” adds a separate entry of the source. Where a name gives a salt, the structure may show the parent alone. Read-outs that look alike come from different tables or passages of the source.

Experiments:
[1] = test system: SARS CoV-2 nanoluciferase reporter virus; test: microbe, parasite or virus in culture; type: cell-based; settings: for IC50: read-out: IC50, viral replication, Nanoluciferase Reporter Virus Assay
ACE1 = molecular target: T1, ACE1 (Homo sapiens, UniProt P12821); test: ACE1 activity assay (colorimetric); type: biochemical; settings: for effect on exopeptidase activity of ACE: hydrochloride
T1 construct: purchased Sigma-Aldrich MAK422
Protocol: ACE1 Activity Assay. ACE1 Inhibitor Screening Kit (Cat #MAK422) was purchased from Sigma-Aldrich (St. Louis, MO) and adapted to determine the effect of BHH and AMB on the enzymatic activity of ACE (Aldrich, 2022). The in vitro colorimetric assay was performed in a transparent flat-bottom 96-well plate. 50 mm and 10 mm solutions of Captropil, a known ACE1 inhibitor were used as a positive inhibitor control. Stock solutions of the compounds were prepared in 100% Dimethyl sulfoxide (DMSO) and further serially diluted in DMSO as follows: 500, 100, 50,10,5,1 and 0.5 μm for AMB and the positive control Captropil. All experiments were performed in quadruplicates. Each plate contained positive controls (1% DMSO) and blank controls with no ACE1 enzyme. Specifically, 2.5 μl of serially diluted compounds were pre-incubated with 2 μl of ACE1 protein diluted in 38 μl of 1× assay diluent buffer for about 15 mins, at room temperature (22° C.). 157.5 μl of 1×ACE1 assay buffer (197.5 μl for −ve control) was added into the 96 well plates. The solution was mixed well and incubated at 37° C. for 15-20 minutes, protected from light. After that, 40 μl of the substrate was added to each well and mixed well. The absorbance was measured immediately at 345 nm (A345) in kinetic mode for 60 minutes.

in vitro = settings: human, Cytotoxicity CC50, A549 cells, 72 hours

T1 sequence (P12821 30-1306): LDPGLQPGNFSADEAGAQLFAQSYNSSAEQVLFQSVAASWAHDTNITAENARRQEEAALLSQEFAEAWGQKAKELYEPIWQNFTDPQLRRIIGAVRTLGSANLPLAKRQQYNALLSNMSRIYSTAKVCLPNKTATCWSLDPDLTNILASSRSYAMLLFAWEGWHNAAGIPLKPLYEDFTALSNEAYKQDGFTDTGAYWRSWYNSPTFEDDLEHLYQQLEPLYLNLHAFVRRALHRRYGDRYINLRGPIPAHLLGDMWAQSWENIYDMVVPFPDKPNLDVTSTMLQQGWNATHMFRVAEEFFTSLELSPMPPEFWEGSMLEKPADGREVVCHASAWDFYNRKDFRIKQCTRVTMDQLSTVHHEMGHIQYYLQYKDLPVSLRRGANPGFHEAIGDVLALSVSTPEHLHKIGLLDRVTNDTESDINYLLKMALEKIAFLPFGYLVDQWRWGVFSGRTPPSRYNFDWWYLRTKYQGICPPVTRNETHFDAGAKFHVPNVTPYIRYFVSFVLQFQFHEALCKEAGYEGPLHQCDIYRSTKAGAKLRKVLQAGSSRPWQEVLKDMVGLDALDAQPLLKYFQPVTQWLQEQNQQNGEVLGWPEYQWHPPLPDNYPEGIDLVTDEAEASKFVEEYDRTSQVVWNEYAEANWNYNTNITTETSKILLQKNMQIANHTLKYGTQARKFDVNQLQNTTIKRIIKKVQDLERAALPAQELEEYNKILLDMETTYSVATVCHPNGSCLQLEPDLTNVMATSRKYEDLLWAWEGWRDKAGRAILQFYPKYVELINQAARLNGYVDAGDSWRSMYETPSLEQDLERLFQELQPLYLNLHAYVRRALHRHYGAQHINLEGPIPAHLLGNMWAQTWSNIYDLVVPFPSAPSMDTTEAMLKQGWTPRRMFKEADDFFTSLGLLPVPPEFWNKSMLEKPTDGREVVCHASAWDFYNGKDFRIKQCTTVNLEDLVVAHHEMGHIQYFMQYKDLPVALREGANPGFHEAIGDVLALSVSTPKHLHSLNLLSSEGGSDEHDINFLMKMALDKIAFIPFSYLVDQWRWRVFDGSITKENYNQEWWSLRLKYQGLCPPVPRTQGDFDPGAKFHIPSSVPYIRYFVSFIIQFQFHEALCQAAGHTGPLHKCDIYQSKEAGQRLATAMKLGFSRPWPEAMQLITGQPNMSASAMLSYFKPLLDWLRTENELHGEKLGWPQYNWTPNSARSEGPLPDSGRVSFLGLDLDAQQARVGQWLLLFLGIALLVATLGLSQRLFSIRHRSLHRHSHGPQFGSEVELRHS

Compound	Conc. at Max. % Viability (A549 cells) [µM]	Conc. at Min. % Viability (A549 cells) [µM]	Max. Viability (A549 cells) [%]	Min. Viability (A549 cells) [%]	CC50 (A549 cells; read-out: Cytotoxicity CC50, 72 hours, hydrochloride) [µM]	Concentration at Maximum % Inhibition ([1]; A549-ACE2, NLRV) [µM]	Maximum Inhibition ([1]; A549-ACE2, NLRV) [%]	IC50 ([1]; Severe acute respiratory syndrome coronavirus 2, A549, 72 h) [µM]	IC50 ([1]; hydrochloride) [µM]	remaining activity at 500 µM (ACE1; 500 μM, read-out: ACE activity remaining) [%]	effect on exopeptidase activity of ACE (ACE1)	CC50 at 72 h (in vitro) [µM]
Nc1c(Br)cc(Br)cc1CN[C@H]1CC[C@H](O)CC1 [AMB, 4-[(2-amino-3,5-dibromophenyl)methylamino]cyclohexan-1-ol; hydrochloride]	2.34	300	100	0.14	137	300	99.73	47	47.3	100	did not inhibit the activity of ACE	137
CN(Cc1cc(Br)cc(Br)c1N)C1CCCCC1 [BHH, Bromhexine hydrochloride]											inhibited; also recorded: showed activity against ACE1	
